Source: patent US20220370406A1, “METHOD OF TREATING STIMULANT USE DISORDER USING A COMBINATION OF TOPIRAMATE AND PHENTERMINE” (University of Kentucky Research Foundation, priority 2019, published 2022)
Where two headings read alike, the source gives them in different places.

Key:
[1] = system: participants with cocaine use disorder; test: Cocaine self-administration on progressive-ratio task during topiramate-phentermine maintenance; type: in vivo, human
Description: The maintenance period for each condition was at least seven (7) days. Participants randomized to 50 or 100 mg/day topiramate initially received 12.5 and 25 mg immediate release topiramate, respectively, twice daily (0700 and 1900 hours) for three (3) days. Participants then received their target dose (i.e., 25 and 50 mg BID, respectively) for four (4) days prior to completing the first block of experimental sessions. This dosing regimen allowed participants to acclimate to a lower topiramate dose before receiving their target dose and was the rationale for topiramate being a between-subject variable. Participants randomized to placebo were also maintained for seven (7) days to maintain the study blind, but their capsules contained only cornstarch.
Phentermine (0, 15, 30 mg) was administered once daily at 0700 hours. Within each topiramate cohort, the phentermine doses were tested in ascending order such that the lower dose (15 mg/day) was tested prior to the higher dose (30 mg/day). This dosing sequence was violated twice due to oversight (i.e., one subject in the 0 mg/day topiramate group and the other in the 50 mg/day topiramate group). Both of these participants were initially maintained on 30 mg/day phentermine.
After at least seven (7) days of maintenance on the first topiramate-phentermine condition, participants completed a block of three experimental sessions described below. Maintenance on the assigned condition continued during each block of experimental sessions. Upon completion of the first block of experimental sessions, participants continued maintenance on the assigned topiramate condition, while the phentermine dose was changed to the next condition. Maintenance on the second topiramate-phentermine condition also lasted at least seven (7) days before the next block of experimental sessions was completed. […]
The reinforcing effects of cocaine during maintenance on the topiramate-phentermine combinations were assessed using a progressive-ratio task. […]

[2] = system: participants with cocaine use disorder; test: Experimental sessions: subjective effects questionnaires after cocaine sampling dose during maintenance; conditions: for subjective effects of cocaine: maintenance on the drug alone; for cocaine-increased ratings of High, Like Drug, Active-Alert-Energetic, Rush and Stimulant Subscale: maintenance on topiramate and phentermine, alone or combined
[3] = system: participants with cocaine use disorder; conditions: in vivo
[4] = system: participants with cocaine use disorder; test: Experimental sessions: cardiovascular measures after cocaine sampling dose during maintenance; conditions: maintenance on the drug alone

SMILES | reduction of cocaine self-administration ([1]; cocaine 40 mg, Topiramate alone (100 mg/day)) | subjective effects of cocaine [2] | cocaine-increased ratings of High, Like Drug, Active-Alert-Energetic, Rush and Stimulant Subscale [2] | cardiovascular effects of cocaine [3] | cocaine self-administration ([1]; Phentermine alone) | reinforcing effects of cocaine ([1]; maintenance on the drug alone) | cardiovascular effects of cocaine [4]
CC1(C)O[C@@H]2[C@@H](CO[C@@]3(COS(N)(=O)=O)OC(C)(C)O[C@@H]23)O1 [topiramate] | 47% | did not alter | did not significantly alter | did not alter |  |  | 
CC(C)(N)Cc1ccccc1 [phentermine] |  | did not significantly alter | did not significantly alter |  | did not significantly reduce | did not significantly alter | did not significantly alter
